Values of other authors as cited in patent US20260199246A1, “LUMATEPERONE PHARMACEUTICAL COMPOSITION, AND LONG-ACTING MICROSPHERE SUSTAINED-RELEASE FORMULATION AND PREPARATION METHOD THEREFOR” (SICHUAN KELUN PHARMACEUTICAL RESEARCH INSTITUTE CO., LTD., priority 2022, published 2026).

Conditions: compared with risperidone

- reduction of the risk of weight gain: 13%
SMILES: CN1CCN2c3c(cccc31)[C@@H]1CN(CCCC(=O)c3ccc(F)cc3)CC[C@@H]12 [Lumiperone, Lumateperone]
